# Data: article PMC7806715, “Discovery of small molecules targeting the tandem tudor domain of the epigenetic factor UHRF1 using fragment-based ligand discovery” (Scientific Reports, 2021)
# Molecular target: T1, His6-UHRF1-full length vs. H3K9me3 peptide (Homo sapiens, UniProt Q96T88)
# T1 construct: made in house; host or cells: Rosetta (DE3) E. coli, pMCSG7
# T1 sequence (Q96T88 1-793): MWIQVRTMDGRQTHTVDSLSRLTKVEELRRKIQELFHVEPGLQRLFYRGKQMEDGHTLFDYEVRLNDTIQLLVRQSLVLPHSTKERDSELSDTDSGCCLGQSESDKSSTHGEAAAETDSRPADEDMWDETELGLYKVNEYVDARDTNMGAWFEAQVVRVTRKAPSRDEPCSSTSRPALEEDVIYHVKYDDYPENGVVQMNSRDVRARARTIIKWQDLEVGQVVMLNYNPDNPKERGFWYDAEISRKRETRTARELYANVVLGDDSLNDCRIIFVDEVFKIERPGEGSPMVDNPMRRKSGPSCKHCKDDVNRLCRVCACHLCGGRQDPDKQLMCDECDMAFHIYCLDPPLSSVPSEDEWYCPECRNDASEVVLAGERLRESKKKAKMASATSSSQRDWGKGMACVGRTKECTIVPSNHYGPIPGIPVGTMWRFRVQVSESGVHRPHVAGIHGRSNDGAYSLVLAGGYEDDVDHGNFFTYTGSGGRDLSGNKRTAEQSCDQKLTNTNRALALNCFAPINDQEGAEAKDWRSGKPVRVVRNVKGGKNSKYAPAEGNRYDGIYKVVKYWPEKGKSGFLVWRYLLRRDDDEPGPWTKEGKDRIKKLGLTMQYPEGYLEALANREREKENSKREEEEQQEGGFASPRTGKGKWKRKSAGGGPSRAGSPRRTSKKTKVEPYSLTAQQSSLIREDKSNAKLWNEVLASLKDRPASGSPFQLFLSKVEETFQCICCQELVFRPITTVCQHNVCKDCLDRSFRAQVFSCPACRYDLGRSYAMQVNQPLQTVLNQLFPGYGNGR
# Assay: TR-FRET assay: His6-UHRF1-FL binding to H3K9me3 peptide
# Assay type: biochemical
# Conditions: dose-response, side by side with His6-TTD
# Procedure: The fragment screen was carried out on low volume 384-well white plates (Corning 4512) and the assay was performed at room temperature. The TR-FRET reagent mix contained 200 nM of biotinylated-H3K9me3 peptide (Anaspec), 250 nM of His6-TTD, 25 nM of streptavidin-d2 (CisBio), and 1 × anti-6His-Tb cryptate Gold (Cisbio) in TR-FRET buffer (50 mM sodium phosphate, pH 7, 150 mM NaCl, 1 mM DTT, and 0.1% Triton-X-100). During the screen, 5 μl of TR-FRET reagent mix was dispensed into each well, and 100 nl of chemical fragments stock (10 mM in DMSO) was added to each well by pintool using Tecan Freedom Evo liquid handler to make the final compound concentration 196 μM. After 1 h of incubation, the fluorescent signals at 665 nm and 620 nm of each plate were measured by the Tecan Infinite M1000 plate reader (excitation 340 nm, 60 μs lag time, and 500 μs integration time) and the TR-FRET signal was calculated by the ratio of 665 nm/620 nm fluorescent signal. For the fragment screen, on seven of the library plates there were 32-wells of DMSO control, while there were 8-wells of DMSO control in the last plate. The TR-FRET assays for the interactions between His6-TTD-PHD and His6-UHRF1-FL binding to biotinylated-H3K9me3 (1-20) peptide were similar to the assay for His6-TTD. […]
structure (smiles),measurement,value
"Cc1ccnc(C)c1 [2,4-lutidine]",inhibition of His6-UHRF1-FL interaction with H3K9me3 peptide (in words),only weakly inhibits
